# Reference: patent publication US6875770B2, “Indole derivative having heterocycle and mono- or diazaindole derivative” (Chugai Seiyaku Kabushiki Kaisha, priority 1998, dated 2005)
# How the values were obtained:
# Human COX-1 = target: T1, Human COX-1 (Homo sapiens, UniProt P23219); assay: Inhibitory activity against human COX-1 using peripheral blood (calcium ionophore A23187, thromboxane B2 EIA); format: cell-based; conditions: 37° C. 4.5 hours then A23187 500 μM 30 minutes
# T1 construct: 500 μl of peripheral blood collected from a healthy volunteer; endogenous in cells; host or cells: human whole peripheral blood from a healthy volunteer, stimulated with calcium ionophore A23187
# T1 sequence (P23219 24-599): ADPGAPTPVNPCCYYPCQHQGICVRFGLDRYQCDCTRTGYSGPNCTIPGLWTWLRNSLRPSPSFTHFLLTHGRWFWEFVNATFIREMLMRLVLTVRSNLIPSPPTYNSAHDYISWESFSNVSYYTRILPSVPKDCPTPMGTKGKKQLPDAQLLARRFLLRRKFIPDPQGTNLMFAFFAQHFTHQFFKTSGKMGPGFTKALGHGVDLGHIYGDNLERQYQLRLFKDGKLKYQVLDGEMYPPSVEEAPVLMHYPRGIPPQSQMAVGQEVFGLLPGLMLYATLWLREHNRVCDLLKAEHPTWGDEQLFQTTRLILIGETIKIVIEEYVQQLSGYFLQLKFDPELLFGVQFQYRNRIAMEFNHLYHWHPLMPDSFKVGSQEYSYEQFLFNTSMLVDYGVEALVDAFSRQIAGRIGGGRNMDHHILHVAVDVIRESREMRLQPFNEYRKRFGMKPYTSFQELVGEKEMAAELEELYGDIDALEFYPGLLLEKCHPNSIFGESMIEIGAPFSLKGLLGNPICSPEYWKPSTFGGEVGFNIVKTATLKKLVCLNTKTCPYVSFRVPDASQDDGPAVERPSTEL
# Experimental: (§1) Method for Measuring Inhibitory Activity Against Human COX-1 and COX-2 Using Peripheral Blood
# (§2) 1 μl of a solution of the compound of the present invention in DMSO was added to 500 μl of peripheral blood collected from a healthy volunteer.
# In the case of measuring COX-1 activity, after incubating at 37° C. for 4.5 hours, calcium ionophore A23187 was added to a final concentration of 500 μM followed by additional incubation at 37° C. for 30 minutes and transferring to ice to stop the reaction.
# Human COX-2 = target: T2, Human COX-2 (Homo sapiens, UniProt P35354); assay: Inhibitory activity against human COX-2 using peripheral blood (LPS-stimulated, thromboxane B2 EIA); format: cell-based; conditions: LPS 10 μg/ml, 37° C. 5 hours
# T2 construct: 500 μl of peripheral blood collected from a healthy volunteer; endogenous in cells; host or cells: human whole peripheral blood from a healthy volunteer, stimulated with LPS
# T2 sequence (P35354 18-604): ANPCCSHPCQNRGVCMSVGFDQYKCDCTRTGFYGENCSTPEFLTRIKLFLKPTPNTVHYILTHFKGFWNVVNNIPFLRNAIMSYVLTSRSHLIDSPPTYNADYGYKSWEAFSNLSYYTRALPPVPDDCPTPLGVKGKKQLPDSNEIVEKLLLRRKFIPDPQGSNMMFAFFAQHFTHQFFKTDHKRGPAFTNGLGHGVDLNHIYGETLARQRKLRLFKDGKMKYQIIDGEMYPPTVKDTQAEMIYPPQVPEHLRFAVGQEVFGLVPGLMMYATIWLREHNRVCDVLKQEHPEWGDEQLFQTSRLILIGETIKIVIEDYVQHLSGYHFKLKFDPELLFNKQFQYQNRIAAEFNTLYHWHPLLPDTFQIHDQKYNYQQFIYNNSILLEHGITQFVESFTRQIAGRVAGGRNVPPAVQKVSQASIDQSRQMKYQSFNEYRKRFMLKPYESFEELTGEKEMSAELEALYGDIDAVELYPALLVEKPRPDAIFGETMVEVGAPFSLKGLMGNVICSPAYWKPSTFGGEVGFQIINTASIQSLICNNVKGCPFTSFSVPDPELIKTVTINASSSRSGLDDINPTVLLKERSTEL
# Experimental: as §1, §2
# In the case of measuring COX-2 activity, LPS (E. coli 026:B6) was added onto blood to which the compound has been added to a concentration of 10 μg/ml followed by incubating at 37° C. for 5 hours and transferring onto ice to stop the reaction.
Structure (SMILES),IC50 (Human COX-1) [nM],IC50 (Human COX-2) [nM],melting point [°C]
"CS(=O)(=O)c1cnc2c(c1)cc(-c1ccco1)n2Cc1ccc(F)cc1 [Example 1, 2-(2-Furyl)-1-(4-fluorobenzyl)-5-methanesulfonyl-1H-pyrrolo[2,3-b]pyridine]",> 20000,150,
"CS(=O)(=O)c1ccc2c(c1)cc(-c1nccs1)n2Cc1ccc(F)cc1 [Example 2, 1-(4-Fluorobenzyl)-5-methanesulfonyl-2-(thiazol-2-yl)indole]",> 20000,500,
"CS(=O)(=O)c1cnc2c(c1)cc(-c1ncco1)n2Cc1ccc(F)cc1 [Example 3, 1-(4-Fluorobenzyl)-2-(oxazol-2-yl)-5-methanesulfonyl-1H-pyrrolo[2,3-b]pyridine]",> 20000,300,200 to 201
"CS(=O)(=O)c1ccc2c(c1)cc(-c1nnco1)n2Cc1ccc(F)cc1 [Example 4, 1-(4-Fluorobenzyl)-5-methanesulfonyl-2-([1,3,4]oxadiazol-2-yl)indole]",> 20000,4000,
"CS(=O)(=O)c1cnc2c(c1)cc(-c1ccccn1)n2Cc1ccc(F)cc1 [Example 5, 5-Methanesulfonyl-2-(2-pyridyl)-1-(4-fluorobenzyl)-1H-pyrrolo[2,3-b]pyridine]",> 20000,400,
"CS(=O)(=O)c1cnc2c(c1)cc(-c1ncccn1)n2CC1CCCCC1 [Example 7, 1-Cyclohexylmethyl-5-methanesulfonyl-2-(2-pyrimidinyl)-1H-pyrrolo[2,3-b]pyridine]",> 20000,1500,
"CS(=O)(=O)c1ccc2c(c1)cc(-c1ccco1)n2Cc1ccc(F)cc1 [Example 8, 2-(2-Furanyl)-1-(4-fluorobenzyl)-5-methanesulfonyl-1H-indole]",> 20000,800,
"CS(=O)(=O)c1ccc2c(c1)cc(-c1ccco1)n2CC1CCCCC1 [Example 9, 1-Cyclohexylmethyl-2-(2-furanyl)-5-methanesulfonylindole]",> 20000,2000,

# Results, then the compound that gave them:
IC50 (Human COX-1) [nM],IC50 (Human COX-2) [nM],melting point [°C],Structure (SMILES)
> 20000,1500,,"CS(=O)(=O)c1cnc2c(c1)cc(-c1ccco1)n2Cc1ccccn1 [Example 10, 2-(2-Furanyl)-5-methanesulfonyl-1-(2-pyridylmethyl)-1H-pyrrolo[2,3-b]pyridine]"
> 20000,200,,"Cc1ccc(-c2cc3cc(S(C)(=O)=O)cnc3n2Cc2ccc(F)cc2)o1 [Example 11, 1-(4-Fluorobenzyl)-5-methanesulfonyl-2-(5-methylfuran-2-yl)-1H-pyrrolo[2,3-b]pyridine]"
> 20000,150,,"CS(=O)(=O)c1cnc2c(c1)cc(-c1ccco1)n2CC1CCCCC1 [Example 12, 2-(2-Furanyl)-1-cyclohexylmethyl-5-methanesulfonyl-1H-pyrrolo[2,3-b]pyridine]"
> 10000,4000,,"CS(=O)(=O)c1ccc2c(c1)cc(C1CCCO1)n2Cc1ccc(F)cc1 (stereo not shown) [Example 13, 2-(2-Tetrahydrofuranyl)-1-(4-fluorobenzyl)-5-methanesulfonyl-indole]"
> 20000,100,,"CS(=O)(=O)c1ccc2c(c1)cc(C1=CCOCC1)n2Cc1ccc(F)cc1 [Example 14, 2-(5,6-Dihydro-2H-4-pyranyl)-1-(4-fluorobenzyl)-5-methanesulfonyl-indole]"
> 20000,800,,"CNC(=O)c1ccc(-c2cc3cc(S(C)(=O)=O)ccc3n2Cc2ccc(F)cc2)nc1 [Example 17, 1-(4-Fluorobenzyl)-5-methanesulfonyl-2-(5-methylaminocarbonylpyridin-2-yl)indole]"
> 20000,200,,"CS(=O)(=O)c1cnc2c(c1)cc(-c1nnco1)n2Cc1ccc(F)cc1 [Example 33, 1-(4-Fluorobenzyl)-5-methanesulfonyl-2-([1,3,4]oxadiazol-2-yl)-1H-pyrrolo[2,3-b]pyridine]"
